The record followed here is patent publication US20240139192A1, “METHODS AND COMPOSITIONS COMPRISING A BRAF INHIBITOR AND A MEK INHIBITOR” (Hoffmann-La Roche Inc., priority 2021, published 2024).

The target of assay [1] is lymphocyte-specific tyrosine protein kinase (LCK) (Homo sapiens, UniProt P06239). Put plainly: biochemical.
The target of assay [2] is C-terminal Src kinase (CSK) (Homo sapiens, UniProt P41240). Put plainly: biochemical.
Assay [3] has as its system P-ERK in A375 cells (V600E mutated BRAF). The experiment in a line: HTRF assay for P-ERK determination in A375 cells. It is filed as cell-based. The settings on record: Homo sapiens, A-375; A375 cell line, 1 hour drug incubation; read-out: pERK IC50 A375. The source says:
DMEM no-phenol red medium supplemented with L-glutamine was purchased from (Thermo Fisher Scientific). Fetal bovine serum (FBS) was purchased from VWR. […] 384-well microplates were purchased from Greiner Bio-One, 384-well, (With Lid, HiBase, Low volume cat 784-080).
ERK 1,2 phosphorylation (terminal member of the phosphorylation cascade of the MAPK pathway) is hereafter reported as main readout for the activation status of the MAPK pathway.
In order to allow proper data normalization control wells without drug treatment reported are always included in each plate (according to manufacturer's instruction):
The plate is then centrifuged at 300 rcf for 30 second, sealed to prevent evaporation and incubated overnight in the dark at room temperature.
The plate is then analyzed and fluorescence emission value collected through a Pherastast FSX (BMG Labtech) apparatus at […].
Data are normalized considering the average of the ratio (blank subtracted) derived by DMSO only treated cells as 100% and by considering the average of the ratio (blank subtracted) derived by 10 μM dabrafenib treated cells as 0%. Mean of the normalized points are fitted with sigmoidal curve and IC50 determined. […] Kd is the dissociation constant in the biochemical experiments.
(In general: In TR-FRET formats the signal depends on donor and acceptor labels being close together.)

In a further assay the target is CRAF (Homo sapiens, UniProt P04049). Put plainly: biochemical.
The next assay concerns the target BRAF (Homo sapiens, UniProt P15056). The experiment in a line: biochemical.
Assay [4] deals with P-ERK in A375 NRAS Q61K cells. The experiment in a line: Western Blot analysis of phosphorylated ERK in A375 NRAS Q61K cells. It is filed as cell-based. The settings on record: 1 h, alone or with 10 nM Cobimetinib, compared with Encorafenib or Encorafenib/Cobimetinib (FIG. 1). On the technique in general: In western blotting, separated proteins are transferred to a membrane and probed.
Description: Cell lines were obtained from ATCC, maintained in humidified incubators at 5% CO2 in standard conditions and passaged twice a week.
The A375 cell line presenting BRAF V600E and the RAF dimer inducing mutation NRAS Q61K was utilized to model a mechanism of resistance to BRAFi and BRAFi/MEKi combinations.

The target in another assay is BRAF V600E (Homo sapiens, UniProt P15056, V600E). Put plainly: biochemical.
Chain of BRAF V600E (P15056 whole entry V600E): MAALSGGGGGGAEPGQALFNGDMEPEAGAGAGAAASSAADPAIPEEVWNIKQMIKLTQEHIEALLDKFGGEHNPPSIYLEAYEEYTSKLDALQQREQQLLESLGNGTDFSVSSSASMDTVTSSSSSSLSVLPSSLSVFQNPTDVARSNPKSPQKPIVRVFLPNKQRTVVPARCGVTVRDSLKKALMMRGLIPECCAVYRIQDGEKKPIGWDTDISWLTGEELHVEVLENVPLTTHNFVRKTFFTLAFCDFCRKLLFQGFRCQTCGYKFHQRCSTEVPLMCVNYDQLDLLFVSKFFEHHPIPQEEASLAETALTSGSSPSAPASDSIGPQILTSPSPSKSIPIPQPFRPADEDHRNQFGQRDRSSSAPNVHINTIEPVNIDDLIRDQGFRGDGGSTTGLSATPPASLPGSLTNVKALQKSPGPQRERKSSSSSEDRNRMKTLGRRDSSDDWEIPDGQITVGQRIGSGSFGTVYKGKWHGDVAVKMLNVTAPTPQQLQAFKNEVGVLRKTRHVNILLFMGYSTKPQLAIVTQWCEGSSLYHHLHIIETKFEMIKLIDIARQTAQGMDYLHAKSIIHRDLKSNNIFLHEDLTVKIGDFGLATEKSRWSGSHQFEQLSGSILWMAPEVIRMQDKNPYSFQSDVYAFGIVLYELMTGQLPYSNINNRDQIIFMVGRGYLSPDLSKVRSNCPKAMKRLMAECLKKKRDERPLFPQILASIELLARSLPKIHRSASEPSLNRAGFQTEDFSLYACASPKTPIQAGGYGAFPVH

Chain of BRAF (P15056 whole entry): as the sequence (P15056 whole entry V600E) above, with E600V counted along it
Chain of C-terminal Src kinase (CSK) (P41240 whole entry): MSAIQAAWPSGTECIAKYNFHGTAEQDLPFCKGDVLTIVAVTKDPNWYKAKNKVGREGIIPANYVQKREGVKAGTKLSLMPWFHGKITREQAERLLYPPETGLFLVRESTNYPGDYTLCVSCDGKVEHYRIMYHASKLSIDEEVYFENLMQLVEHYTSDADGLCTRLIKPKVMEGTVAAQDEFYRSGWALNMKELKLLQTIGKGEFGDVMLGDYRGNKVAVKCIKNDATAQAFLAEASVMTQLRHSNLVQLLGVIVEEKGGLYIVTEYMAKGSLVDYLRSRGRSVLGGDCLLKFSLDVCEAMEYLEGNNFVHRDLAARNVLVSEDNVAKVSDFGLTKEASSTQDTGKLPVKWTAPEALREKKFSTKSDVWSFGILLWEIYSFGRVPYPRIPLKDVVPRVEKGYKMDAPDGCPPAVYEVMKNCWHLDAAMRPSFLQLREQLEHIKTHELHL
Chain of CRAF (P04049 whole entry): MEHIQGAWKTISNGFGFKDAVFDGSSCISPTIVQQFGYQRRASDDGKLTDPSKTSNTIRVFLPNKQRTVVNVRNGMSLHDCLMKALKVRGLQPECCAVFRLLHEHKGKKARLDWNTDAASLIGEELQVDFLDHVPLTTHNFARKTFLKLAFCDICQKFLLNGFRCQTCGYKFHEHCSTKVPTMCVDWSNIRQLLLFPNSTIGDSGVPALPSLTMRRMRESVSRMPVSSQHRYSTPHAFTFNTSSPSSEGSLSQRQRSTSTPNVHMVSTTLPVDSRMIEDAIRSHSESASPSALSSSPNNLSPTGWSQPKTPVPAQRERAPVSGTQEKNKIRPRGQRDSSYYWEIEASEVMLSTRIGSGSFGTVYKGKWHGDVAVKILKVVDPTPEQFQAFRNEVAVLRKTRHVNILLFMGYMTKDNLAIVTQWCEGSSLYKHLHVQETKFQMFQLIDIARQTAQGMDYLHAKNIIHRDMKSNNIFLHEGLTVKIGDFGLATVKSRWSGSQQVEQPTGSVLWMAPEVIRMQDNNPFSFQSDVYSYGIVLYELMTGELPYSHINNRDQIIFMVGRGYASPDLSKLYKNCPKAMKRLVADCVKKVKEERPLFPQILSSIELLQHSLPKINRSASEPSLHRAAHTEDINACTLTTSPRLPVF
Chain of lymphocyte-specific tyrosine protein kinase (LCK) (P06239 whole entry): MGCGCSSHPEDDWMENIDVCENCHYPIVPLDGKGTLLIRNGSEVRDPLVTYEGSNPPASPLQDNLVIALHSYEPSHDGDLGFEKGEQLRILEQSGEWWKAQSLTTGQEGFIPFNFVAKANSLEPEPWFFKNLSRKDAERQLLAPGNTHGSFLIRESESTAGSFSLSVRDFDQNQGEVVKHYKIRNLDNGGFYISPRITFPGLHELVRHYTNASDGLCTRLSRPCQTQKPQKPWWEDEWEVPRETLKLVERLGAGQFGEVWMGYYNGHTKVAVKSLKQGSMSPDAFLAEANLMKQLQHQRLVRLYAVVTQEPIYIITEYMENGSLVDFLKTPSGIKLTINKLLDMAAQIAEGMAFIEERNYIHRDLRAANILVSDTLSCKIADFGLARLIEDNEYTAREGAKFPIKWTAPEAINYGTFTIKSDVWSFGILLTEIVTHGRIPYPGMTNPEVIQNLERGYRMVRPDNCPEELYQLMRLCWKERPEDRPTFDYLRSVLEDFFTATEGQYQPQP

The Kd is a measure of binding affinity in units of concentration. What is called IC50 is the point on the concentration scale where inhibition reaches its midpoint. Take `Cn1cnc2ccc(Oc3c(F)ccc(NS(=O)(=O)N4CC[C@@H](F)C4)c3C#N)cc2c1=O` [(Ia), (3R)-N-[2-cyano-4-fluoro-3-(3-methyl-4-oxo-quinazolin-6-yl)oxy-phenyl]-3-fluoro-pyrrolidine-1-sulfonamide]: the Kd is 40000 nM in assay [1]; 23300 nM in assay [2]; 1.7 nM on CRAF; 0.6 nM at BRAF; 1.2 nM on BRAF V600E. Besides, in assay [3], the IC50 came to 6.9 nM. Besides, the “P-ERK inhibition (Western Blot)” value in assay [4] was “superior P-ERK inhibition compared to Encorafenib”.

Take `Cn1cnc2ccc(Oc3c(F)ccc(NS(=O)(=O)N4CC[C@H](F)C4)c3C#N)cc2c1=O` [(Ib), (3S)-N-[2-cyano-4-fluoro-3-(3-methyl-4-oxo-quinazolin-6-yl)oxy-phenyl]-3-fluoro-pyrrolidine-1-sulfonamide]: the Kd in assay [1] was found to be 20100 nM; in assay [2] it was 9160 nM; at CRAF it was 1.2 nM; at BRAF, 1.3 nM; on BRAF V600E, 0.9 nM. Besides, the IC50 in assay [3] was found to be 10.6 nM.
